Experimental data: US20020132019A1, “Sterol fractions of Nigella sativa L. seeds” (priority 2000, published 2002)

What was measured:
Assay type in all cases: in vivo
[1] = system: ova albumin sensitized guinea pigs; test: Tachypnea protective effect in ova albumin sensitized animals; conditions: 50 :g/kg, treated for 21 days, ova albumin inhalation
Protocol: This experiment was an in vivo study to evaluate the tachypnea (protective) effect of the Nigella sativa L. sterol fraction of the present invention. The second protocol involved sensitized animals. Animals were sensitized by injecting ova albumin in two doses 100 mg. each (S.C. and I.P., simultaneously). Animals were resensitized 15 days later. Guinea pigs were divided into three groups with 8 animals per group. The first group received a saline injection to serve as negative control. The second group received ketotifen which is the standard treatment to serve as positive control. The third group received 200 mg/kg each of the Nigella sativa L. sterol fraction of the present invention. Animals in all groups were treated for 21 days following which they were exposed to ova albumin inhalation and time to onset of tachypnea was recorded as shown in the table below.

[2] = system: guinea pigs exposed to histamine aerosol (0.25%); test: Prophylactic anti-asthmatic effect: pre-convulsive time on histamine aerosol (0.25%); conditions: 50 :g/kg, treated for 21 days, histamine 0.25% aerosol
Protocol: This example explains an in vivo study to evaluate the prophylactic (protective) anti-asthmatic effect of the Nigella sativa L. sterol fraction. The prophylactic anti-asthmatic effect was evaluated in vivo by measurement of the pre-convulsive time in guinea pigs exposed to histamine aerosol (0.25%).
Guinea pigs were divided into three groups with 8 animals per group. The first group received saline injections to serve as negative control. The second group received ketotifen, which is the standard treatment to serve as positive control. The third group received 200 mg/kg each of the Nigella sativa L. sterol fraction of the present invention.
Animals in all groups were treated for 21 days after which time they were exposed to histamine (0.25 %) aerosol and the preconvulsive time was recorded.

[3] = system: histamine-induced bronchospasm in guinea pigs; test: Prophylactic anti-allergic effect: protection against histamine aerosol (1%) induced bronchospasm; conditions: 239 mg/kg i.p.
Protocol: The prophylactic anti-allergic effects of the Nigella sativa L. sterol fraction were evaluated in guinea pigs (300-400 grams). Animals were divided into 5 groups (10 animals each) and treated i.p. As follows:
First: Animals treated by saline.
Second: Animals treated by diphenhydramine (239 mg/kg/day).
Third: Animals treated by the Nigella sativa L. sterol fraction (50 mg/kg).
Animals treated by the Nigella sativa L. sterol fraction (100 mg/kg).
Fifth: Animals treated by the Nigella sativa L. sterol fraction (150mg/kg).
Animals were exposed 30 minutes after their i.p. Injection of diphenhydramine and the Nigella sativa L. sterol fraction (50,100 and 150 mg/kg) to histamine aerosol (1% for 3 minutes to induce bronchospasm or tachypnea) (Armitage et al, Br. J. Pharmacol., 16:59-76 (1961)). The percent protection against bronchospasm and loss of rightening after 30, 60 and 90 minutes was calculated (Dawson and Sweatman, Br. J. Pharmacol, 71:387-398 (1980)).

| Structure (SMILES) | % of Prophylaxis [1] [%] | % of Prophylaxis (Protection) [2] [%] | % protection 30 minutes ([3]; 30 minutes) [%] | % protection 60 minutes ([3]; 60 minutes) [%] | % protection 90 minutes ([3]; 90 minutes) [%] |
| --- | --- | --- | --- | --- | --- |
| CN1CCC(=C2c3ccccc3CC(=O)c3sccc32)CC1 [ketotifen] | 44.4 | 82.85 |  |  |  |
| CN(C)CCOC(c1ccccc1)c1ccccc1 [Diphenhydramine, diphenhydramine] |  |  | 100 | 100 | 90 |
